Patent US11564920B2, “5-heteroaryl-1H-pyrazol-3-amine derivative” (Sumitomo Pharma Co., Ltd., priority 2020, dated 2023)
Values belong to the compound of their own block, whether it stands above or below them.

Tests used:
CHK1 = CHK1 (Homo sapiens (Human), UniProt O14757); assay: Kinase selectivity test (HotSpot Full Panel Kinase profiling); format: biochemical; details: 100 nM, ATP 10 μM; read-out: Residual activity (%) CHK1
Method: (§1) Buffer: 20 mM HEPES, pH 7.5, 10 mM MgCl2, 2 mM […] (as needed), 1 mM EGTA, 0.02% Brij35, 0.02 mg/mL BSA, 0.1 mM Na3VO4, 2 mM DTT, 1% DMSO
(§2) Compound concentration: 100 nM

CYP3A4 = CYP3A4 (Homo sapiens (Human), UniProt P08684); assay: CYP3A4 MBI and enzyme inactivation clearance evaluation; format: in vitro ADME; details: human liver microsome
Chain of CYP3A4 (P08684 whole entry): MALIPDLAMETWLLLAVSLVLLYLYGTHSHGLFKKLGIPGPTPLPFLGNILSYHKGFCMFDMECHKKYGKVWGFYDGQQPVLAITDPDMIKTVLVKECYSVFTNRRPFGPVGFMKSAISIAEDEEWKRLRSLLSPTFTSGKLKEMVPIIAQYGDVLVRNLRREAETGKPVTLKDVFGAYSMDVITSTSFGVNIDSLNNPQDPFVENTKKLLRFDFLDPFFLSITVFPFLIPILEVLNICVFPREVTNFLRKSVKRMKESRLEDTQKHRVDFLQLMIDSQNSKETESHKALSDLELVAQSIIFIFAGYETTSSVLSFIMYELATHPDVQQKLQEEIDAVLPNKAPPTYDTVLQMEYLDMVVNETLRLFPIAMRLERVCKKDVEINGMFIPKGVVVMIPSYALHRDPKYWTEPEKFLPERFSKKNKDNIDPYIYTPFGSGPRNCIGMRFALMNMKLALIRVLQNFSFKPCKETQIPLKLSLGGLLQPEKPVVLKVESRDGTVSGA
Method: The effect and mode of inhibition of the test compound on CYP3A4 were evaluated using a human liver microsome as an enzyme source and midazolam or testosterone as a substrate. […] The IC50 value was calculated from a concentration plot.

hERG current [1] = target: T1, hERG current (Homo sapiens (Human), UniProt Q12809); assay: hERG current blocking test; details: IC50 of hERG divided by IC50 of CHK1 inhibition of Test Example 1
T1 sequence (Q12809 whole entry): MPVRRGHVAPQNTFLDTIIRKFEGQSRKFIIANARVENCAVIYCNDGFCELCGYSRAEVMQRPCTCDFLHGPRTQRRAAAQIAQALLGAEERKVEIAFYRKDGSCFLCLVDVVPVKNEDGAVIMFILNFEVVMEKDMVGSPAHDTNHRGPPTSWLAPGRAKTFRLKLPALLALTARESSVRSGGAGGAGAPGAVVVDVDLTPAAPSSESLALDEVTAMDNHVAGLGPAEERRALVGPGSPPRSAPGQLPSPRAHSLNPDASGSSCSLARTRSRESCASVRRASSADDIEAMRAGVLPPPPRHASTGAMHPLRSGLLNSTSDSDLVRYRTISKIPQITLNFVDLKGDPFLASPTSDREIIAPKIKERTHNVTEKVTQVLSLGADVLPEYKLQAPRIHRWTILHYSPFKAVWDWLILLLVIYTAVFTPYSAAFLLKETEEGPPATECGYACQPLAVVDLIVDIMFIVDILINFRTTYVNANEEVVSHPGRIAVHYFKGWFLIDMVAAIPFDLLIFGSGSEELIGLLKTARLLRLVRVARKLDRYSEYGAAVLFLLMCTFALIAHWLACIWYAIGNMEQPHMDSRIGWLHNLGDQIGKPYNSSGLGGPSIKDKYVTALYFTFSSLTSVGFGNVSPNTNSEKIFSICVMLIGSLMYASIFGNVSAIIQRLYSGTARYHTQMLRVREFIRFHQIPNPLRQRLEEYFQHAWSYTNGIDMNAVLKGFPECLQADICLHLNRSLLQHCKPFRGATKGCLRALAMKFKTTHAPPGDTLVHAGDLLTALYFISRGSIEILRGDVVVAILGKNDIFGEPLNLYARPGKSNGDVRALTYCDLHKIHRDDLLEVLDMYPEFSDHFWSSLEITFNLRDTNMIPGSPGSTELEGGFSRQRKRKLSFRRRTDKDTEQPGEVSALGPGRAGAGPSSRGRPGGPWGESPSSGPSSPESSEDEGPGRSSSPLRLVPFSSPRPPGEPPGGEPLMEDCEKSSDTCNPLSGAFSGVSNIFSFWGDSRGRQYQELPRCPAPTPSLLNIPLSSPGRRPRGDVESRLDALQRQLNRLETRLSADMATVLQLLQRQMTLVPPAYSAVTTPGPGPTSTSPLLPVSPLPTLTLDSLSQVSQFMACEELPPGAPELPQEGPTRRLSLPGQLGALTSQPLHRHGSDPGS
Method: (§4) The test compounds were added to cultured hERG (human Ether-a-go-go Related Gene) gene stably expressing CHO cell line cells to achieve 0.27 to 100 μM.

[2] = test system: Human bone marrow CD34 positive hematopoietic stem cells; assay: Human bone marrow cell myeloid lineage differentiation induction test; format: cell-based; details: 3 nM
Method: Human bone marrow CD34 positive hematopoietic stem cells were obtained from Lonza K. K. The frozen cells were thawed in a […] fetal bovine serum containing IMDM medium and suspended in a Complete hemaTox® Myeloid Medium. 1000 cells were seeded per well in a 96-well plate. The evaluated compound was added so that the final concentration of DMSO would be […] and 3 nM, and the cells were cultured for 7 days at 37° C. in the presence of 5% CO2. After completion of culture, half of the amount of cell suspension was retrieved from each well. The luminescence was measured using CellTiter-Glo® 3D Reagent (Promega, G968B) to calculate the cell survival percentage by the following equation. Cell survival percentage (%)=(measurement value of luminescence after 7 days of evaluated compound)/(measurement value of luminescence after 7 days of control group)×100

CHK2 [3] = target: T2, CHK2 (Homo sapiens (Human), UniProt O96017); assay: CHK1/CHK2 selectivity test (LabChip mobility shift); format: biochemical; details: read-out: IC50 value with respect to CHK2
T2 sequence (O96017 whole entry): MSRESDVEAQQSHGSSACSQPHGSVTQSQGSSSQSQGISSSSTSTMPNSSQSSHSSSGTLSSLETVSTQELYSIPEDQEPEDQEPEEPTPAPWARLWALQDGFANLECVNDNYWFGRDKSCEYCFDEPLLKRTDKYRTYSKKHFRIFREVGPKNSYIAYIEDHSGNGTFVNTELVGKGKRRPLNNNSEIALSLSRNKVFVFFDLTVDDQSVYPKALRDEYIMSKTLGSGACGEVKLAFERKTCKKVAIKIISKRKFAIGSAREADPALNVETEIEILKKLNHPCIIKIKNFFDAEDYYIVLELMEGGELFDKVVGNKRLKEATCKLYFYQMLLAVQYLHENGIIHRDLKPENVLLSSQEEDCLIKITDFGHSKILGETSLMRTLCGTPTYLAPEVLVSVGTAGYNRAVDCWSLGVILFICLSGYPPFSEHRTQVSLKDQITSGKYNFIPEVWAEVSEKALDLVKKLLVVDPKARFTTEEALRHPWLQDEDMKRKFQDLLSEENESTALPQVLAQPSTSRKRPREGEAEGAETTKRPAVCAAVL
Method: A 4-fold concentration test compound solution was prepared with an assay buffer (20 mM HEPES, 0.01% Triton X-100, 1 mM DTT, pH 7.5). A 4-fold concentration substrate/ATP/metal solution was prepared with a kit buffer (20 mM HEPES, 0.01% Triton X-100, 5 mM DTT, pH 7.5).

hERG current [4] = target: T1, hERG current; assay: cell-based
Method: as §4

CDK8/CYCLIN C = CDK8/CYCLIN C (Homo sapiens (Human), UniProt P49336); assay: Kinase selectivity test (HotSpot Full Panel Kinase profiling); format: biochemical; details: 100 nM, ATP 10 μM; read-out: Residual activity (%) CDK8/CYCLIN C
Method: as §1, §2

MARK2/PAR-1BA = MARK2/PAR-1BA (Homo sapiens (Human), UniProt Q7KZI7); assay: as above; format: biochemical; details: 100 nM, ATP 10 μM; read-out: Residual activity (%) MARK2/PAR-1BA (PAR-18A in Table 33)
Method: as §1, §2

CHK2 [5] = target: T2, CHK2; assay: as above; format: biochemical; details: 100 nM, ATP 10 μM; read-out: Residual activity (%) CHK2
Method: as §1, §2

BRSK1 = BRSK1 (Homo sapiens (Human), UniProt Q8TDC3); assay: as above; format: biochemical; details: 100 nM, ATP 10 μM; read-out: Residual activity (%) BRSK1
Chain of BRSK1 (Q8TDC3 whole entry): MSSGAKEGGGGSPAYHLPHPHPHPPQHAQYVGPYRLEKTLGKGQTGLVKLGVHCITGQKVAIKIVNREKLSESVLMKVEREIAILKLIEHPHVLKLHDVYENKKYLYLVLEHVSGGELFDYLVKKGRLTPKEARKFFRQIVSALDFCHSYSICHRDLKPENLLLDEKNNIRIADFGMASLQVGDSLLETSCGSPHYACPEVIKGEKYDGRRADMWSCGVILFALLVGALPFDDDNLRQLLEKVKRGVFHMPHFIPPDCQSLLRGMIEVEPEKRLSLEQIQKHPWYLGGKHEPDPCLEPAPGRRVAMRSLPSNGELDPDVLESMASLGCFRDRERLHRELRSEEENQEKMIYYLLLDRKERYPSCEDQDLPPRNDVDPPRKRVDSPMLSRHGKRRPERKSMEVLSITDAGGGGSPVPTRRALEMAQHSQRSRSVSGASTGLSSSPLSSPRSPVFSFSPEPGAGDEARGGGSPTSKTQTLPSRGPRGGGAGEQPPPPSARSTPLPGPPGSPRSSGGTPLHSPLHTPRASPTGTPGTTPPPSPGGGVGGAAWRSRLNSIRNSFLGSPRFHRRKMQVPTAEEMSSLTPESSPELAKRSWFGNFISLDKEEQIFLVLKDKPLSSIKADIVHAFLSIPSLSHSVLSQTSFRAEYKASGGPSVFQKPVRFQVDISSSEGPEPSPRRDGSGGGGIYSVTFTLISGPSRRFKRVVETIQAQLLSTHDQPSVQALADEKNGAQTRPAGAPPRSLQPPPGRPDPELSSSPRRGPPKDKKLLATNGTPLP
Method: as §1, §2

CAMK2D = CAMK2D (Homo sapiens (Human), UniProt Q13557); assay: as above; format: biochemical; details: 100 nM, ATP 10 μM; read-out: Residual activity (%) CAMK2D
Method: as §1, §2

MARK1 = MARK1 (Homo sapiens (Human), UniProt Q9P0L2); assay: as above; format: biochemical; details: 100 nM, ATP 10 μM; read-out: Residual activity (%) MARK1
Method: as §1, §2

LOK/STK10 = LOK/STK10 (Homo sapiens (Human), UniProt O94804); assay: as above; format: biochemical; details: 100 nM, ATP 10 μM; read-out: Residual activity (%) LOK/STK10
Chain of LOK/STK10 (O94804 whole entry): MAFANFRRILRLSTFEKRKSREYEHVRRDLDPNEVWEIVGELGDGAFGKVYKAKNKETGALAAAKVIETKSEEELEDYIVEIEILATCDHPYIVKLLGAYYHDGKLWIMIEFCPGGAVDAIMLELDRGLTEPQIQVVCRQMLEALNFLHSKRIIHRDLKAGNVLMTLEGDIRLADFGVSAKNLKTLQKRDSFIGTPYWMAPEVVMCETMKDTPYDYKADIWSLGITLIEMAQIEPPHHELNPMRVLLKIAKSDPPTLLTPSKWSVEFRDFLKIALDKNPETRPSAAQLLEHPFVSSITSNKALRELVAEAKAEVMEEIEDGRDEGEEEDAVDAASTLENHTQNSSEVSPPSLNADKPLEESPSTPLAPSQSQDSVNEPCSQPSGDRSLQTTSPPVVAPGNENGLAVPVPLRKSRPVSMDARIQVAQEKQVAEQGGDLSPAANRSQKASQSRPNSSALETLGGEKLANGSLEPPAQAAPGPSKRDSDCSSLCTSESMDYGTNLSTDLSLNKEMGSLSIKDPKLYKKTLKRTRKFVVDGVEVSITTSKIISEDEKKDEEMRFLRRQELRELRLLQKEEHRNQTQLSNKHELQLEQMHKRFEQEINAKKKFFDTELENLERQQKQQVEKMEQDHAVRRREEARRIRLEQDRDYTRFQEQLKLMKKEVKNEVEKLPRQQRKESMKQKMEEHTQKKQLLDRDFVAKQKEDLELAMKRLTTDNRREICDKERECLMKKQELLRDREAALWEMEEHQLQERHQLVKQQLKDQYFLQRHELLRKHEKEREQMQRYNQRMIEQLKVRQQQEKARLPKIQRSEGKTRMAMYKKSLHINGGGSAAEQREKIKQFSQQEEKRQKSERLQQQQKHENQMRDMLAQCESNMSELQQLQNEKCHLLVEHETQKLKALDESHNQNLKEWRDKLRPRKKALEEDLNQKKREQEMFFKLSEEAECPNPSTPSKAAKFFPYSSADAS
Method: as §1, §2

BRSK2 = BRSK2 (Homo sapiens (Human), UniProt Q8IWQ3); assay: as above; format: biochemical; details: 100 nM, ATP 10 μM; read-out: Residual activity (%) BRSK2
Method: as §1, §2

ARKS/NUAK1 = ARKS/NUAK1 (Homo sapiens (Human), UniProt O60285); assay: as above; format: biochemical; details: 100 nM, ATP 10 μM; read-out: Residual activity (%) ARKS/NUAK1
Method: as §1, §2

MARK3 = MARK3 (Homo sapiens (Human), UniProt P27448); assay: as above; format: biochemical; details: 100 nM, ATP 10 μM; read-out: Residual activity (%) MARK3
Method: as §1, §2

CDK19/CYCLIN C = CDK19/CYCLIN C (Homo sapiens (Human), UniProt Q9BWU1); assay: as above; format: biochemical; details: 100 nM, ATP 10 μM; read-out: Residual activity (%) CDK19/CYCLIN C
Method: as §1
(§3) ATP conversion rate in 2 hours: 5 to 20%
as §2

LRRK2 = LRRK2 (Homo sapiens (Human), UniProt Q5S007); assay: as above; format: biochemical; details: 100 nM, ATP 10 μM; read-out: Residual activity (%) LRRK2
Method: as §1, §3, §2

GLK/MAP4K3 = GLK/MAP4K3 (Homo sapiens (Human), UniProt Q8IVH8); assay: as above; format: biochemical; details: 100 nM, ATP 10 μM; read-out: Residual activity (%) GLK/MAP4K3
Method: as §1, §3, §2

MEK5 = MEK5 (Homo sapiens (Human), UniProt Q13163); assay: as above; format: biochemical; details: 100 nM, ATP 10 μM; read-out: Residual activity (%) MEK5
Chain of MEK5 (Q13163 whole entry): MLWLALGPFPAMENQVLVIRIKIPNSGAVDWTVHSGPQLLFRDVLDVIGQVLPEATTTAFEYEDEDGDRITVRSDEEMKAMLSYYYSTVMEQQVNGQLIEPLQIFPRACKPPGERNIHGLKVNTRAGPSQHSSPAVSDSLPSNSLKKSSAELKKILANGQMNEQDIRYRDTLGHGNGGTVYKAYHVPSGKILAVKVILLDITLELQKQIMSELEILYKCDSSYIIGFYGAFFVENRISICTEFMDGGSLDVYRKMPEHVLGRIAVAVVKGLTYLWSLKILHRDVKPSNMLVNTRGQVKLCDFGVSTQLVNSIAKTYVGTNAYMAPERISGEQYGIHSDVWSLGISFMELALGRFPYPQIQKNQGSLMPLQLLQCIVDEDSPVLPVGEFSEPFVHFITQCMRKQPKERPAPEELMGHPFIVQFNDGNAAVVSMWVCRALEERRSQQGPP
Method: as §1, §3, §2

SIK1 = SIK1 (Homo sapiens (Human), UniProt P57059); assay: as above; format: biochemical; details: 100 nM, ATP 10 μM; read-out: Residual activity (%) SIK1
Method: as §1, §3, §2

Chain of CHK1 (O14757 whole entry): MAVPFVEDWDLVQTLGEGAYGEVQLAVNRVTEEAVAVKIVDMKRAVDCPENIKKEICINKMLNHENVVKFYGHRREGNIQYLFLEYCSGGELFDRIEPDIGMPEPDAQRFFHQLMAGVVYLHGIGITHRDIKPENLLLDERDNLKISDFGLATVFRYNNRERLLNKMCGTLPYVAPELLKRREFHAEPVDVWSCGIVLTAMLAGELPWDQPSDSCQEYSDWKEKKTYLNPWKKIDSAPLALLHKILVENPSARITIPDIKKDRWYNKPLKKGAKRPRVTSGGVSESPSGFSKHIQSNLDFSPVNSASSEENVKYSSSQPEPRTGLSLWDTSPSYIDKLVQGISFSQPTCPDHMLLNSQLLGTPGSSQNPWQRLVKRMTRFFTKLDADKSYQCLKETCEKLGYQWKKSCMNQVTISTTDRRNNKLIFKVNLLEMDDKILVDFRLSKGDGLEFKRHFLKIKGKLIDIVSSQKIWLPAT

SMILES: COc1ccnc(OCCCN)c1-c1cc(Nc2cnc(C#N)cn2)n[nH]1 [Example 1, 5-({5-[2-(3-aminopropoxy)-4-methoxypyridin-3-yl]-1H-pyrazol-3-yl}amino)pyrazine-2-carbonitrile]
remaining activity at 0.1 µM (CHK1): 2.87%
Factor of change in IC50 value (CYP3A4; by pre-incubation with NADPH, MBI action when 2-fold or greater): Not Detected
inhibition of CYP3A4 based on MBI (in words) (CYP3A4): do not exhibit inhibition of CYP3A4 based on MBI
hERG/CHK1 (hERG current [1]): >115000
effect on myeloid cells induced to differentiate from human bone marrow cells (in words) [2]: does not exhibit an effect of suppressing myeloid cells induced to differentiate from human bone marrow cells
IC50 (CHK2 [3]): 0.0566 µM
IC50 (hERG current [4]): 11.5 µM

remaining activity at 0.1 µM (CDK8/CYCLIN C): 18.1%
remaining activity at 0.1 µM (MARK2/PAR-1BA): 14.3%
remaining activity at 0.1 µM (CHK2 [5]): 6.41%
remaining activity at 0.1 µM (BRSK1): 21.7%
remaining activity at 0.1 µM (CAMK2D): 6.07%
remaining activity at 0.1 µM (MARK1): 14.1%
remaining activity at 0.1 µM (LOK/STK10): 6.15%
remaining activity at 0.1 µM (BRSK2): 14.4%
remaining activity at 0.1 µM (ARKS/NUAK1): 17.9%
remaining activity at 0.1 µM (MARK3): 12.6%
microsomal CLint (CYP3A4; liver microsomes, probe midazolam or testosterone): 0.019 µL/min/mg
remaining activity at 0.1 µM (CDK19/CYCLIN C): 19.9%
remaining activity at 0.1 µM (LRRK2): 23.5%
remaining activity at 0.1 µM (GLK/MAP4K3): 20.8%
remaining activity at 0.1 µM (MEK5): 10.7%
remaining activity at 0.1 µM (SIK1): 11.9%
SMILES: COc1cccc(OCCCN)c1-c1cc(Nc2cnc(C#N)cn2)n[nH]1 [Prexasertib, reference compound]
inhibition of CYP3A4 based on MBI (in words) (CYP3A4): exhibits inhibition of CYP3A4 based on MBI
effect on myeloid cells induced to differentiate from human bone marrow cells (in words) [2]: exhibited an effect of suppressing myeloid cells induced to differentiate from human bone marrow cells
